From patent US20240025912A1 (Merck Sharp & Dohme LLC, priority 2022, published 2024)

Target: GST-RIPK1 (recombinant GST-RIPK1 kinase domain (residues 1-327)) (Homo sapiens (Human), UniProt Q13546)
Assay: RIPK1-ADP-Glo Enzymatic Assay
Format: biochemical
Details: 25 nM GST-RIPK1, 300 μM ATP, 3 μM dephosphorylated-MBP, 30 min pre-incubation, 150 min reaction
Method in brief: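 GST-RIPK1 kinase domain (1-327, Sf21-expressed), 25 nM final, pre-incubated 30 min with compound (1% DMSO), then reacted 150 min with 300 μM ATP and 3 μM dephosphorylated MBP in HEPES pH 7.3/MgCl2 buffer. ADP measured by ADP-Glo luminescence; EC50 from 10-point 1:3 titrations (top 100000 nM), four-parameter fit.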

GST-RIPK1 (recombinant GST-RIPK1 kinase domain (residues 1-327)), sequence (Q13546 1-327): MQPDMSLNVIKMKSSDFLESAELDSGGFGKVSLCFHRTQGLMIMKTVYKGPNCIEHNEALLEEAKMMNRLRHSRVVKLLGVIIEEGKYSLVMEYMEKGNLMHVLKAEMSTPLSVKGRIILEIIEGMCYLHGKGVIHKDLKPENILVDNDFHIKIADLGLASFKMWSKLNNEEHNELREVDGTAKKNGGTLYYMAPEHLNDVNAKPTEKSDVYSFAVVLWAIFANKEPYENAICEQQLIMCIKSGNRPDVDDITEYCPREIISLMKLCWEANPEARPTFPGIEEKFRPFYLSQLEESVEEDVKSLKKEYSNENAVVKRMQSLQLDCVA

SMILES | EC50 [µM]
N#CC12CC(n3nc4n(c3=O)[C@H](c3cc(F)cc(F)c3)CC4)(C1)C2 [Compound 1-5, 3-[(5S)-5-(3,5-difluorophenyl)-3-oxo-6,7-dihydro-3H-pyrrolo[2,1-c][1,2,4]triazol-2(5H)-yl]bicyclo[1.1.1]pentane-1-carbonitrile] | 0.0148
N#CC12CC(n3nc4n(c3=O)[C@H](c3cncc(F)c3)CC4)(C1)C2 [Compound 1-11, 3-[(5S)-5-(5-fluoropyridin-3-yl)-3-oxo-6,7-dihydro-3H-pyrrolo[2,1-c][1,2,4]triazol-2(5H)-yl]bicyclo[1.1.1]pentane-1-carbonitrile] | 0.3
N#CC12CC(n3nc4n(c3=O)[C@H](c3ccc(F)c(F)c3)CC4)(C1)C2 [Compound 1-44, (S)-3-(5-(3,4-difluorophenyl)-3-oxo-6,7-dihydro-3H-pyrrolo[2,1-c][1,2,4]triazol-2(5H)-yl)bicyclo[1.1.1]pentane-1-carbonitrile] | 0.0677
COC12CCC(n3nc4n(c3=O)[C@H](c3cc(F)cc(F)c3)CC4)(CC1)C2 [Compound 1-26, (5S)-5-(3,5-difluorophenyl)-2-(4-methoxybicyclo[2.2.1]heptan-1-yl)-2,5,6,7-tetrahydro-3H-pyrrolo[2,1-c][1,2,4]triazol-3-one] | 0.377
O=c1n(C23CC(F)(C2)C3)nc2n1[C@H](c1ccc(F)cc1F)CC2 [Compound 1-48, (S)-5-(2,4-difluorophenyl)-2-(3-fluorobicyclo[1.1.1]pentan-1-yl)-2,5,6,7-tetrahydro-3H-pyrrolo[2,1-c][1,2,4]triazol-3-one] | 0.0544
N#CC12CCC(n3nc4n(c3=O)[C@H](c3cnccn3)CC4)(C1)C2 [Compound 1-60, (S)-4-(3-oxo-5-(pyrazin-2-yl)-6,7-dihydro-3H-pyrrolo[2,1-c][1,2,4]triazol-2(5H)-yl)bicyclo[2.1.1]hexane-1-carbonitrile] | 0.512
N#CC12CC(n3nc4n(c3=O)[C@H](c3cccc(F)c3)CC4)(C1)C2 [Compound 1-24, (S)-3-(5-(3-fluorophenyl)-3-oxo-6,7-dihydro-3H-pyrrolo[2,1-c][1,2,4]triazol-2(5H)-yl)bicyclo[1.1.1]pentane-1-caronitrile] | 0.0297
N#CC12CCC(n3nc4n(c3=O)[C@H](c3cc(F)cc(F)c3)CC4)(C1)C2 [Compound 1-35, 4-[(5S)-5-(3,5-difluorophenyl)-3-oxo-6,7-dihydro-3H-pyrrolo[2,1-c][1,2,4]triazol-2(5H)-yl]bicyclo[2.1.1]hexane-1-carbonitrile] | 0.0497
CC(F)(F)C12CC(n3nc4n(c3=O)[C@H](c3ccccc3)CC4)(C1)C2 [Compound 1-32, (5S)-2-[3-(1,1-difluoroethyl)bicyclo[1.1.1]pentan-1-yl]-5-phenyl-2,5,6,7-tetrahydro-3H-pyrrolo[2,1-c][1,2,4]triazol-3-one] | 0.0364
O=c1n(C23CC(F)(C2)C3)nc2n1[C@H](c1cccc(Cl)c1)CC2 [Compound 1-63, (S)-5-(3-chlorophenyl)-2-(3-fluorobicyclo[1.1.1]pentan-1-yl)-2,5,6,7-tetrahydro-3H-pyrrolo[2,1-c][1,2,4]triazol-3-one] | 0.0681
O=c1n(C23CC(Cl)(C2)C3)nc2n1[C@H](c1cccc(F)c1)CC2 [Compound 1-42, (S)-2-(3-chlorobicyclo[1.1.1]pentan-1-yl)-5-(3-fluorophenyl)-2,5,6,7-tetrahydro-3H-pyrrolo[2,1-c][1,2,4]triazol-3-one] | 0.0185
N#CC12CC(n3nc4n(c3=O)[C@H](c3c(F)cccc3F)CC4)(C1)C2 [Compound 1-43, (S)-3-(5-(2,6-difluorophenyl)-3-oxo-6,7-dihydro-3H-pyrrolo[2,1-c][1,2,4]triazol-2(5H)-yl)bicyclo[1.1.1]pentane-1-carbonitrile] | 0.0577
N#CC12CC(n3nc4n(c3=O)[C@H](c3ccc(C(F)(F)F)cc3)CC4)(C1)C2 [Compound 1-50, (S)-3-(3-oxo-5-(4-(trifluoromethyl)phenyl)-6,7-dihydro-3H-pyrrolo[2,1-c][1,2,4]triazol-2(5H)-yl)bicyclo[1.1.1]pentane-1-carbonitrile] | 0.25
O=c1n(C23C4C5C2C2C3C4C52F)nc2n1[C@H](c1cc(F)cc(F)c1)CC2 (stereo partly drawn) [Compound 1-20, (5S)-5-(3,5-difluorophenyl)-2-(4-fluoropentacy-clo[4.2.0.0~2,5~.0~3,8~.0~4,7~]octan-1-yl)-2,5,6,7-tetrahydro-3H-pyrrolo[2,1-c][1,2,4]triazol-3-one] | 0.0385
N#CC12CC(n3nc4n(c3=O)[C@H](c3ccccc3)CC4)(C1)C2 [Compound 1-17, 3-[(5S)-3-oxo-5-phenyl-6,7-dihydro-3H-pyrrolo[2,1-c][1,2,4]triazol-2(5H)-yl]bicyclo[1.1.1]pentane-1-carbonitrile] | 0.0369
O=c1n(C23CC(F)(C2)C3)nc2n1[C@H](c1c(F)cccc1F)CC2 [Compound 1-40, (S)-5-(2,6-difluorophenyl)-2-(3-fluorobicyclo[1.1.1]pentan-1-yl)-2,5,6,7-tetrahydro-3H-pyrrolo[2,1-c][1,2,4]triazol-3-one] | 0.034
O=c1n(C23CC(F)(C2)C3)nc2n1[C@H](c1ccccc1F)CC2 [Compound 1-9, (5S)-2-(3-fluorobicyclo[1.1.1]pentan-1-yl)-5-(2-fluorophenyl)-2,5,6,7-tetrahydro-3H-pyrrolo[2,1-c][1,2,4]triazol-3-one] | 0.0261
O=c1n(C23CC(Cl)(C2)C3)nc2n1[C@H](c1ccccc1)CC2 [Compound 1-41, (5S)-2-(3-chlorobicyclo[1.1.1]pentan-1-yl)-5-phenyl-2,5,6,7-tetrahydro-3H-pyrrolo[2,1-c][1,2,4]triazol-3-one] | 0.0329
N#CC12C3C4C1C1C2C3C41n1nc2n(c1=O)[C@H](c1cc(F)cc(F)c1)CC2 (stereo partly drawn) [Compound 1-21, 4-[(5S)-5-(3,5-difluorophenyl)-3-oxo-6,7-dihydro-3H-pyrrolo[2,1-c][1,2,4]triazol-2(5H)-yl]penta-cyclo[4.2.0.0~2,5~.0~3,8~.0~4.7~] octane-1-carbonitrile] | 0.141

Second part, the compound after the results:

EC50 [µM] | SMILES
0.0212 | Cc1c(F)cc([C@@H]2CCc3nn(C45CC(F)(C4)C5)c(=O)n32)cc1Cl [Compound 1-72, (S)-5-(3-chloro-5-fluoro-4-methylphenyl)-2-(3-fluorobicyclo[1.1.1]pentan-1-yl)-2,5,6,7-tetrahydro-3H-pyrrolo[2,1-c][1,2,4]triazol-3-one]
0.0218 | N#CC12CC(n3nc4n(c3=O)[C@H](c3ccccc3)CC4F)(C1)C2 (single isomer, unassigned) [Compound 6-8, 3-[(5S)-7-(S or R)-fluoro-3-oxo-5-phenyl-6,7-dihydro-3H-pyrrolo[2,1-c][1,2,4]triazol-2(5H)-yl]bicyclo[1.1.1]pentane-1-carbonitrile]
0.0495 | Cc1ccc([C@@H]2CCc3nn(C45CC(C#N)(C4)C5)c(=O)n32)cc1 [Compound 4-7, (S)-3-(3-oxo-5-(p-tolyl)-6,7-dihydro-3H-pyrrolo[2,1-c][1,2,4]triazol-2(5H)-yl)bicyclo[1.1.1]pentane-1-carbonitrile]
0.0219 | O=c1n(C23CC(F)(C2)C3)nc2n1[C@H](c1ccccc1)CC2F (single isomer, unassigned) [Compound 6-4, (5S)-7-(S or R)-fluoro-2-(3-fluorobicyclo[1.1.1]pentan-1-yl)-5-phenyl-2,5,6,7-tetrahydro-3H-pyrrolo[2,1-c][1,2,4]triazol-3-one]
0.0205 | N#CC12CC(n3nc4n(c3=O)[C@H](c3cc(F)cc(F)c3)CC4F)(C1)C2 (single isomer, unassigned) [Compound 6-6, 3-[(5S)-5-(3,5-difluorophenyl)-7-(S or R)-fluoro-3-oxo-6,7-dihydro-3H-pyrrolo[2,1-c][1,2,4]triazol-2(5H)-yl]bicyclo[1.1.1]pentane-1-carbonitrile]
0.0257 | O=c1n(C23CC(F)(C2)C3)nc2n1[C@H](c1cc(F)cc(F)c1)C[C@@H]2O [Compound 5-2, (5S,7S)-5-(3,5-difluorophenyl)-2-(3-fluorobicyclo[1.1.1]pentan-1-yl)-7-hydroxy-2,5,6,7-tetrahydro-3H-pyrrolo[2,1-c][1,2,4]triazol-3-one]
0.0181 | N#CC12CC(n3nc4n(c3=O)[C@H](c3ccccc3F)CC4F)(C1)C2 (single isomer, unassigned) [Compound 6-10, 3-[(5S)-7-(S or R)-fluoro-5-(2-fluorophenyl)-3-oxo-6,7-dihydro-3H-pyrrolo[2,1-c][1,2,4]triazol-2(5H)-yl]bicyclo[1.1.1]pentane-1-carbonitrile]
0.045 | N#CC12CC(n3nc4n(c3=O)[C@H](c3ccccc3)CC4)(C1)C2(F)F [Compound 3-3, 2,2-difluoro-3-[(5S)-3-oxo-5-phenyl-6,7-dihydro-3H-pyrrolo[2,1-c][1,2,4]triazol-2(5H)-yl]bicyclo[1.1.1]pentane-1-carbonitrile]
0.0282 | O=c1n(C23CC(F)(C2)C3)nc2n1[C@H](c1cc(F)c(O)c(F)c1)CC2 [Compound 1-73, (S)-5-(3,5-difluoro-4-hydroxyphenyl)-2-(3-fluorobicyclo[1.1.1]pentan-1-yl)-2,5,6,7-tetrahydro-3H-pyrrolo[2,1-c][1,2,4]triazol-3-one]
0.157 | O=c1n(C23CC(F)(C2)C3)nc2n1[C@H](c1ccccc1)CC2F (single isomer, unassigned) [Compound 6-3, (5S)-7-(S or R)-fluoro-2-(3-fluorobicyclo[1.1.1]pentan-1-yl)-5-phenyl-2,5,6,7-tetrahydro-3H-pyrrolo[2,1-c][1,2,4]triazol-3-one]
0.0783 | O=c1n(C23CC(F)(C2)C3)nc2n1[C@H](c1cc(F)cc(F)c1)C[C@H]2O [Compound 5-1, (5S,7R)-5-(3,5-difluorophenyl)-2-(3-fluorobicyclo[1.1.1]pentan-1-yl)-7-hydroxy-2,5,6,7-tetrahydro-3H-pyrrolo[2,1-c][1,2,4]triazol-3-one]
